According to PubChem BioAssay (NCI):
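Following 48 hours of exposure in 96-well plates, responses at five concentrations were used to interpolate endpoints linearly. At the GI50, growth is halved. The concentration for full growth arrest is given as TGI.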

Columns and labels:
Assay in all cases: NCI-60 cell line screen, 48 h
SF-268 CNS = test system: SF-268 CNS
DLD-1 colon = test system: DLD-1 colon
DMS 114 small cell lung = test system: DMS 114 small cell lung
HOP-18 NSCLC = test system: HOP-18 NSCLC
KM20L2 colon = test system: KM20L2 colon
SNB-78 CNS = test system: SNB-78 CNS
LXFL 529 NSCLC = test system: LXFL 529 NSCLC

## COc1cc(/C=C2/Oc3c(OC)cccc3C2=O)ccc1O
SF-268 CNS
  TGI: > 100 µM

## CCN(CC)CCNc1ccc([N+](=O)[O-])c2sc3cc(Cl)ccc3c(=O)c12
SF-268 CNS
  GI50: 9.88 µM
  TGI: 46.9 µM

## CC(C)=CCC/C(C)=C/C=C/C(C)=C/C1C[C@@]2(C(O)O1)[C@H](CCCO)/C(=C(/C)C=O)CC[C@]2(C)O (some centres undefined)
DLD-1 colon
  TGI: 44.4 µM
DMS 114 small cell lung
  TGI: 27.4 µM
HOP-18 NSCLC
  TGI: 33.4 µM
KM20L2 colon
  TGI: 29.1 µM
SF-268 CNS
  TGI: 33.3 µM
SNB-78 CNS
  TGI: 42 µM

## c1cncc([O][Ge]([O]c2cccnc2)([O]c2cccnc2)[O]c2cccnc2)c1
DLD-1 colon
  GI50: > 100 µM
  TGI: > 100 µM
HOP-18 NSCLC
  GI50: > 100 µM
  TGI: > 100 µM
KM20L2 colon
  GI50: > 100 µM
  TGI: > 100 µM
SNB-78 CNS
  GI50: > 100 µM
  TGI: > 100 µM

## C/C(=N\NC(=S)N1CCOCC1)c1nc2ncccc2[nH]1
SF-268 CNS
  TGI: > 100 µM

## O=C(O)/C=C/c1ccncc1
DLD-1 colon
  TGI: > 100 µM
DMS 114 small cell lung
  TGI: > 100 µM
KM20L2 colon
  TGI: > 100 µM
LXFL 529 NSCLC
  TGI: > 100 µM
SF-268 CNS
  TGI: > 100 µM
SNB-78 CNS
  TGI: > 100 µM
